In ChEMBL document CHEMBL1201862, “PubChem BioAssay data set” (2004) one finds AC50 and EC50 data, which are given here for seven molecules.

The source made the active and inactive calls.

Experiment [1] can be described thus: HIV-1 AD8 envelope cell-cell fusion blockers – cherry-pick, dose response (AID 652062).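 Note: luciferase signal from cell-cell fusion driven by HIV-1 clade B AD8 Env; potency is for inhibitors of fusion seen as a drop in luminescence.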 Format: functional, cell-based.
The nature of experiment [2]: blockers of HIV-1 ZM109 envelope-driven cell-cell fusion – HeLa effector, CEM target cells, luciferase, cherry-pick, dose response (AID 652058).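 Note: luciferase signal from HIV-1 Env mediated cell-cell fusion of effector and target cells.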 Format: functional, cell-based.
Experiment [3] in a line: off-target signal loss in HeLa-CEM21 co-culture – HeLa F-luc CTL cells, cherry-picked, counter-screen for HIV-1 Env fusion inhibitor project, dose response (AID 652040).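 Note: potency for signal decrease marking cytotoxic or nonspecific inhibition.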 Format: functional, cell-based. Background: Counterscreens check selectivity or assay interference.
A short description of experiment [4]: blockers of HIV-1 envelope-mediated cell-cell fusion – cherry-pick, dose response (AID 652057). Format: functional, cell-based.
The target of experiment [5] is T1, Oxysterols receptor LXR-beta (Homo sapiens, UniProt P55055).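 Note: Cell-based luminescence dose-response assay of agonist activity at LXR, run as a confirmatory counterscreen to a daf-12 agonist screen; HEK293 cells with Gal4-LXR fusion and GAL4-driven luciferase reporter; agonist potency from rising luciferase signal of a Gal4-LXR reporter.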
T1 sequence (P55055 whole entry): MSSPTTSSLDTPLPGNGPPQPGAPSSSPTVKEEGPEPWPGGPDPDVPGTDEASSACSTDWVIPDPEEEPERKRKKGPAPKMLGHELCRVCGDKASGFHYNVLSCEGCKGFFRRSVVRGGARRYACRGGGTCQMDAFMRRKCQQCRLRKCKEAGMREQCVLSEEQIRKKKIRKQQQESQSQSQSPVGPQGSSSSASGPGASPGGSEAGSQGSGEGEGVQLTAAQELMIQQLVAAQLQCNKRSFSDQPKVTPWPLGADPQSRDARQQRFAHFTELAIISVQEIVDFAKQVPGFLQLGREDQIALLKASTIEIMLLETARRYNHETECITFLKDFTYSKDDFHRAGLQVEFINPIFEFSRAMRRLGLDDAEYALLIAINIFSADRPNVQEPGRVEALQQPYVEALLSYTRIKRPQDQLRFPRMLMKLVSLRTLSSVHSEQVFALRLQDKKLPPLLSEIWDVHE
Type of experiment: functional, cell-based.

A further experiment has as its target Paired box protein Pax-8 (Homo sapiens, UniProt Q06710). Briefly: PAX8 transcriptional activity inhibition in RMG-I – RMG-I cells, luciferase, cherry-pick, dose response (AID 687027).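 Note: luciferase reporter driven by Pax8 target thyroperoxidase promoter measured by SteadyGlo luminescence.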 Format: functional, cell-based.
Experiment [6] in a line: OVCAR8 cell viability loss – plate reader, dry powder samples, PAX8 project, dose response (AID 743197). Type of experiment: functional, cell-based. The settings on record: OVCAR-8.

Paired box protein Pax-8, sequence (Q06710 whole entry): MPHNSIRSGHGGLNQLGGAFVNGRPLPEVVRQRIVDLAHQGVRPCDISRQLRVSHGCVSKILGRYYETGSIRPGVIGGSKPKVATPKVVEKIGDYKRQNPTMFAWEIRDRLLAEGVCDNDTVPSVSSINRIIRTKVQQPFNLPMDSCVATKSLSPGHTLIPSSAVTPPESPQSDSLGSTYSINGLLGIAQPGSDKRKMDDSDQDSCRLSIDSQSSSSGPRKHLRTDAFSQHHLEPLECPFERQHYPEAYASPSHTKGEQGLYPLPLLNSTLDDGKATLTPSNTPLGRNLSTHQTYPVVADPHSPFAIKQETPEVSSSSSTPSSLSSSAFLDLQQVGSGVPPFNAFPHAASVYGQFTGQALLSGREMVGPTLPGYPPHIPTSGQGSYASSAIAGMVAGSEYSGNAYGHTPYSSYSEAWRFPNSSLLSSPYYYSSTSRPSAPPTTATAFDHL

As a reminder, the AC50 is the concentration at which the activity in the assay is half-maximal. Consider `COc1ccccc1[C@@H]1C(c2ccc(F)cc2)=NN(c2ccccc2)[C@H]1C(=O)N1CCOC1=O`, for which the AC50 in experiment [1] was 12.6 µM (active); in experiment [2], 7.77 µM (active); in experiment [3], 7.61 µM (active); in experiment [4], 3.59 µM (active).

With `Cc1cccc(N2C(=O)N3[C@H](c4ccc(Br)cc4)[C@@H]4C(=O)N(C(C)(C)C)C(=O)[C@@H]4[C@]3(C)C2=O)c1`, the AC50 in experiment [1] is 1.69 µM (active); in experiment [2], 0.746 µM (active); in experiment [3], 0.936 µM (active); in experiment [4], 0.48 µM (active).

For orientation: EC50 means the concentration needed to bring the measured effect to its halfway point. Consider `O=C(COc1ccccc1Cl)Nc1ccc(Cl)cn1`, for which the EC50 (in “cells”; in experiment [5]) was > 67.5 µM (inactive) in each case.

In the case of `C=CCN([C@@H](CC(C)C)C(=O)OC)S(=O)(=O)N(CC=C)[C@@H](CC(C)C)C(=O)OC`, the AC50 in experiment [1] is 25.9 µM (active); in experiment [2], 24.7 µM (active); in experiment [3] it was 21 µM (active); in experiment [4], 6.72 µM (active).

For the molecule `C[C@H](CO)N1C[C@H](C)[C@H](CN(C)Cc2ccc(-c3ccccc3)cc2)Oc2ccc(NS(=O)(=O)c3ccc(F)cc3)cc2CC1=O`, the AC50 is 27.1 µM (active) at Paired box protein Pax-8 and > 70 µM (inactive) in experiment [6].

On to `C[C@@H]1CCCCO[C@H](CN(C)Cc2ccc3c(c2)OCO3)[C@@H](C)CN([C@@H](C)CO)C(=O)c2cc(NS(=O)(=O)c3ccc(Cl)cc3)ccc2O1`, for which the AC50 at Paired box protein Pax-8 is 9.45 µM (active); in experiment [6] it was > 70 µM (inactive).

Regarding `C/C(=N\Nc1nc2ccccc2s1)c1cccs1`, the EC50 (in “cells”; in experiment [5]) was > 67.5 µM (inactive) each time.
